Assay [1] deals with T1, recombinant human B1 receptors (Homo sapiens, UniProt P46663).
T1 construct: host or cells: CHO (CHO-B1)
T1 sequence (P46663 1-353): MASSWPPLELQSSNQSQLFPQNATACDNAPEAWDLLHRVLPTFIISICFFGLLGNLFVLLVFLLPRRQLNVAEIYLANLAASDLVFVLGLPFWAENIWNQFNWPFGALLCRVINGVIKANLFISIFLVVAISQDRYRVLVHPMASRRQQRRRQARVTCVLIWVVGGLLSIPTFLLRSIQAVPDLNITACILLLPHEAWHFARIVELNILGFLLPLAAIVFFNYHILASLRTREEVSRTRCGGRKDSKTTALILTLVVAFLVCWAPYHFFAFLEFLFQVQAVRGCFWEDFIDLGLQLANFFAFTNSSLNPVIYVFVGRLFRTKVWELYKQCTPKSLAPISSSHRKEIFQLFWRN
Description: Functional assay: antagonist potency by cytosolic calcium measurement (plate reader fluorimeter) in CHO-B1 cells, agonist LysDABK. In kind it is cell-based. As to conditions: CHO-B1 cells, inhibition of LysDABK (EC80)-evoked [Ca2+]i elevation; read-out: B1 func. The essentials: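 IC50 is the concentration giving half-maximal inhibition of the LysDABK (EC80) calcium response, fitted from at least three experiments. CHO cells stably expressing human B1 were dye-loaded, exposed to compound for 20-25 min, then read by fluo-4 fluorescence (ΔF/F) at 37 °C.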

Assay [2] deals with T2, human recombinant bradykinin B1 receptor (Homo sapiens, UniProt P46663).
T2 construct: host or cells: CHO cells, clone hB1-A5
T2 sequence (P46663 1-353): T1 sequence (P46663 1-353)
Description: Human recombinant bradykinin B1 receptor competitive radioligand binding. As to conditions: hB1 expressed in CHO cells, [3H]-[Des-Arg10] Kallidin radioligand; read-out: B1 binding. In short, it runs like this:
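Competition radioligand binding on CHO-expressed hB1 membranes, using [3,4-prolyl-3,4-^3H(N)]-[Des-Arg^10] Kallidin as tracer, 15 min at 25° C. Excess Lys-des-Arg^9-Bradykinin (10 μM) set nonspecific binding. Sigmoidal fits of at least seven concentrations gave IC50, converted to Ki via Cheng-Prusoff; KD from Scatchard.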

Some results are limits rather than exact numbers.

Consider `Cc1nnc(-c2c(Cl)c3ccccc3n2-c2ccc(CNC(=O)C3(NC(=O)CC(F)(F)F)CC3)cc2)o1` [Example 183, 1-(3,3,3-Trifluoro-propionylamino)-cyclopropanecarboxylic acid 4-[3-chloro-2-(5-methyl-[1,3,4]oxadiazol-2-yl)-indol-1-yl]-benzylamide], for which the IC50 in assay [1] lay within 20 to 100 nM. Also, in assay [2], the Ki was in the range of 20 to 100 nM.

In the case of `COc1cc(C(=O)NC2(C(=O)NCc3ccc(-n4c(-c5nc(C)no5)cc5ccccc54)cn3)CC2)on1` [Example 56, 3-Methoxy-isoxazole-5-carboxylic acid [1-({5-[2-(3-methyl-[1,2,4]oxadiazol-5-yl)-indol-1-yl]-pyridin-2-ylmethyl}-carbamoyl)-cyclopropyl]-amide], the IC50 in assay [1] was in the range of 100 to 500 nM. Also, the Ki in assay [2] was 100 to 500 nM.

As for `Cc1ccc(C(=O)NC2(C(=O)NCc3ccc(-n4c(-c5noc(C)n5)c(Cl)c5ccccc54)cc3)CC2)c(Cl)n1` [Example 156, 2-Chloro-N-(1-{4-[3-chloro-2-(5-methyl-[1,2,4]oxadiazol-3-yl)-indol-1-yl]-benzylcarbamoyl}-cyclopropyl)-6-methyl-nicotinamide], the IC50 in assay [1] is below 20 nM. In assay [2], the Ki is below 20 nM.

As to `COc1cc(C(=O)NC2(C(=O)NCc3ccc(-n4c(-c5noc(C)n5)cc5cc(F)ccc54)cc3)CC2)on1` [Example 47, 3-Methoxy-isoxazole-5-carboxylic acid (1-{4-[5-fluoro-2-(5-methyl-[1,2,4]oxadiazol-3-yl)-indol-1-yl]-benzylcarbamoyl}-cyclopropyl)-amide], in assay [1], the IC50 is below 20 nM. Further, the Ki in assay [2] was below 20 nM.

Consider `Cc1nc(-c2c(Cl)c3ccccc3n2-c2ccc(CNC(=O)C3(NC(=O)c4ccc(F)nc4)CC3)cc2)no1` [Example 99, N-(1-{4-[3-Chloro-2-(5-methyl-[1,2,4]oxadiazol-3-yl)-indol-1-yl]-benzylcarbamoyl}-cyclopropyl)-6-fluoro-nicotinamide], for which the IC50 in assay [1] is below 20 nM. Moreover, the Ki in assay [2] was below 20 nM.

As for `COc1cc(C(=O)NC2(C(=O)NCc3ccc(-n4c(-c5nnn(C)n5)cc5ccccc54)cc3)CC2)on1` [Example 3, 3-Methoxy-isoxazole-5-carboxylic acid (1-{4-[2-(2-methyl-2H-tetrazol-5-yl)-indol-1-yl]-benzylcarbamoyl}-cyclopropyl)-amide], the IC50 in assay [1] was below 20 nM. In addition, the Ki in assay [2] was below 20 nM.

As for `Cc1noc(-c2cc3cc(F)ccc3n2-c2ccc(CNC(=O)C3(NC(=O)CC(F)(F)F)CC3)cc2)n1` [Example 101, 1-(3,3,3-Trifluoro-propionylamino)-cyclopropanecarboxylic acid 4-[5-fluoro-2-(3-methyl-[1,2,4]oxadiazol-5-yl)-indol-1-yl]-benzylamide], the IC50 in assay [1] was below 20 nM. The Ki in assay [2] was below 20 nM.

Consider `Cc1nc(-c2c(Cl)c3cc(F)ccc3n2-c2ccc(CNC(=O)C3(NC(=O)c4cccnc4F)CC3)cc2)no1` [Example 117, N-(1-{4-[3-Chloro-5-fluoro-2-(5-methyl-[1,2,4]oxadiazol-3-yl)-indol-1-yl]-benzylcarbamoyl}-cyclopropyl)-2-fluoro-nicotinamide], for which, in assay [1], the IC50 is below 20 nM. Also, the Ki in assay [2] was below 20 nM.

With `CNC(=O)c1c(Cl)c2ccccc2n1-c1ccc(C(C)NC(=O)C2(NC(=O)C(F)(F)F)CC2)cc1` (centres unmarked) [Example 32, 3-Chloro-1-[4-(1-{[1-(2,2,2-trifluoro-acetylamino)-cyclopropanecarbonyl]-amino}-ethyl)-phenyl]-1H-indole-2-carboxylic acid methylamide], the IC50 in assay [1] is below 20 nM. The Ki in assay [2] is below 20 nM.

With `COc1ccc2c(c1)c(Cl)c(-c1noc(C)n1)n2-c1ccc(CNC(=O)C2(NC(=O)C(F)(F)F)CC2)cc1` [Example 63, 1-(2,2,2-Trifluoro-acetylamino)-cyclopropanecarboxylic acid 4-[3-chloro-5-methoxy-2-(5-methyl-[1,2,4]oxadiazol-3-yl)-indol-1-yl]-benzylamide], the IC50 in assay [1] is below 20 nM. Further, the Ki in assay [2] was below 20 nM.

As to `Cc1nc(-c2c(Cl)c3ccccc3n2-c2ccc(CNC(=O)C3(NC(=O)CC(F)(F)F)CC3)c(F)c2)no1` [Example 108, 1-(3,3,3-Trifluoro-propionylamino)-cyclopropanecarboxylic acid 4-[3-chloro-2-(5-methyl-[1,2,4]oxadiazol-3-yl)-indol-1-yl]-2-fluoro-benzylamide], the IC50 in assay [1] was below 20 nM. For the same molecule, in assay [2], the Ki was below 20 nM.

As to `Cc1nc(-c2c(Cl)c3ccccc3n2-c2ccc(CNC(=O)C3(NC(=O)c4ccc(F)c(C(F)(F)F)c4)CC3)cc2)no1` [Example 98, N-(1-{4-[3-Chloro-2-(5-methyl-[1,2,4]oxadiazol-3-yl)-indol-1-yl]-benzylcarbamoyl}-cyclopropyl)-4-fluoro-3-trifluoromethyl-benzamide], the IC50 in assay [1] fell in the range of 20 to 100 nM. Also, the Ki in assay [2] was below 20 nM.

Consider `Cc1nc(-c2c(Cl)c3ccccc3n2-c2ccc(CNC(=O)C3(NC(=O)c4cc(C5CC5)on4)CC3)c(F)c2)no1` [Example 110, 5-Cyclopropyl-isoxazole-3-carboxylic acid (1-{4-[3-chloro-2-(5-methyl-[1,2,4]oxadiazol-3-yl)-indol-1-yl]-2-fluoro-benzylcarbamoyl}-cyclopropyl)-amide], for which the IC50 in assay [1] is below 20 nM. In assay [2], the Ki is below 20 nM.

Turning to `COc1cc(C(=O)NC2(C(=O)NCc3ccc(-n4c(-c5nnn(C)n5)c(Cl)c5ccccc54)cc3)CC2)on1` [Example 2, 3-Methoxy-isoxazole-5-carboxylic acid (1-{4-[3-chloro-2-(2-methyl-2H-tetrazol-5-yl)-indol-1-yl]-benzylcarbamoyl}-cyclopropyl)-amide], in assay [1], the IC50 was below 20 nM. The Ki in assay [2] is below 20 nM.

In the case of `Cc1nc(-c2c(Cl)c3cc(Cl)ccc3n2-c2ccc(CNC(=O)C3(NC(=O)c4cccnc4Cl)CC3)cc2)no1` [Example 70, 2-Chloro-N-(1-{4-[3,5-dichloro-2-(5-methyl-[1,2,4]oxadiazol-3-yl)-indol-1-yl]-benzylcarbamoyl}-cyclopropyl)-nicotinamide], the IC50 in assay [1] is below 20 nM. Also, the Ki in assay [2] is below 20 nM.

Consider `COc1ccc2c(c1)c(Cl)c(-c1nc(C)no1)n2-c1ccc(CNC(=O)C2(NC(=O)c3cc(OC)no3)CC2)cc1` [Example 51, 3-Methoxy-isoxazole-5-carboxylic acid (1-{4-[3-chloro-5-methoxy-2-(3-methyl-[1,2,4]oxadiazol-5-yl)-indol-1-yl]-benzylcarbamoyl}-cyclopropyl)-amide], for which, in assay [1], the IC50 is below 20 nM. The Ki in assay [2] is below 20 nM.

Consider `C#CCCC(=O)NC1(C(=O)NCc2ccc(-n3c(-c4noc(C)n4)c(Cl)c4ccccc43)cc2)CC1` [Example 139, 1-Pent-4-ynoylamino-cyclopropanecarboxylic acid 4-[3-chloro-2-(5-methyl-[1,2,4]oxadiazol-3-yl)-indol-1-yl]-benzylamide], for which the IC50 in assay [1] was below 20 nM. Further, in assay [2], the Ki is below 20 nM.

For `Cc1nc(-c2c(Cl)c3ccccc3n2-c2ccc(CNC(=O)C3(NC(=O)C4CCC4)CC3)cc2)no1` [Example 143, Cyclobutanecarboxylic acid (1-{4-[3-chloro-2-(5-methyl-[1,2,4]oxadiazol-3-yl)-indol-1-yl]-benzylcarbamoyl}-cyclopropyl)-amide], the IC50 in assay [1] is below 20 nM. Moreover, the Ki in assay [2] was below 20 nM.

As for `Cc1nc(-c2c(Cl)c3ccccc3n2-c2ccc(CNC(=O)C3(NC(=O)c4cc(C)n(C)n4)CC3)cc2)no1` [Example 148, 1,5-Dimethyl-1H-pyrazole-3-carboxylic acid (1-{4-[3-chloro-2-(5-methyl-[1,2,4]oxadiazol-3-yl)-indol-1-yl]-benzylcarbamoyl}-cyclopropyl)-amide], the IC50 in assay [1] fell in the range of 20 to 100 nM. Also, the Ki in assay [2] is below 20 nM.

On to `COc1cc(C(=O)NC2(C(=O)NCc3ccc(-n4c(-c5nc(C)no5)cc5ccccc54)cc3)CC2)on1` [Example 196, 3-Methoxy-isoxazole-5-carboxylic acid (1-{4-[2-(3-methyl-[1,2,4]oxadiazol-5-yl)-indol-1-yl]-benzylcarbamoyl}-cyclopropyl)-amide], for which the IC50 in assay [1] lay in the range of 20 to 100 nM. Also, the Ki in assay [2] was below 20 nM.

For `Cc1nc(-c2c(Cl)c3ccccc3n2-c2ccc(CNC(=O)C3(NC(=O)C4(C#N)CC4)CC3)cc2)no1` [Example 142, 1-Cyano-cyclopropanecarboxylic acid (1-{4-[3-chloro-2-(5-methyl-[1,2,4]oxadiazol-3-yl)-indol-1-yl]-benzylcarbamoyl}-cyclopropyl)-amide], in assay [1], the IC50 fell in the range of 20 to 100 nM. For the same molecule, the Ki in assay [2] was below 20 nM.

In the case of `COc1cc(C(=O)NC2(C(=O)NCc3ccc(-n4c(-c5nnn(C)n5)c(Cl)c5cc(F)ccc54)cc3)CC2)on1` [Example 13, 3-Methoxy-isoxazole-5-carboxylic acid (1-{4-[3-chloro-5-fluoro-2-(2-methyl-2H-tetrazol-5-yl)-indol-1-yl]-benzylcarbamoyl}-cyclopropyl)-amide], the IC50 in assay [1] is below 20 nM. The Ki in assay [2] was below 20 nM.

The values above are taken from US20130217702A1 (Richter Gedeon Nyrt., priority 2010, published 2013).
